Assay results as given in ChEMBL document CHEMBL1201862, “PubChem BioAssay data set” (2004).
Active and inactive are the calls of the source.

Tests used:
[1] = Late stage assay provider results from the probe development effort to identify inhibitors of the Plasmodium falciparum M17 Leucine Aminopeptidase (M17LAP): radiolabel-based cell-based dose response assay to identify compounds that inhibit P. falciparum growth in RBCs Set 2.; format: functional
[2] = target: T1, Probable nicotinate-nucleotide adenylyltransferase (Staphylococcus aureus (strain N315), UniProt P65502); format: functional, Staphylococcus aureus subsp. aureus N315; settings: read-out: IC50_Mean;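 as to IC50 Mean: confirmatory dose-response retesting of NadD inhibitor hits first found in an ultra-high-throughput screen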
[3] = viability of HCT116 lacking mutant beta-catenin – cell-based, human colon tumor, dose response (AID 1045); format: functional;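 also: HCT116 colon tumor cells with beta catenin knocked out; cells exposed to compound for 60 hours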
[4] = viability of PTEN-deleted HCT116 cells – cell-based, HCT116 PTEN knockout, dose response (AID 1047); format: functional;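 also: HCT116 colon tumor cells with PTEN knocked out; cells exposed to compound for 60 hours before readout; potency for loss of cell viability measured by luminescence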
[5] = target: T1, Probable nicotinate-nucleotide adenylyltransferase; format: functional, Staphylococcus aureus subsp. aureus N315
[6] = P. falciparum Dd2 growth inhibitors, dose response, SYBR Green, cherry-picked samples (AID 1159567); format: functional, cell-based
[7] = toxicity to human hepatoma HepG2 cells – cell-based, cherry-picked samples, cytotoxicity control, dose response (AID 1159577); format: functional
[8] = target: T2, Oxysterols receptor LXR-beta (Homo sapiens, UniProt P55055); format: functional, cell-based;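 also: agonist activity at LXR measured by a cell-based luminescence readout across a dose range, run as a counterscreen for daf-12 agonists; HEK293 cells with Gal4-LXR fusion and GAL4-driven luciferase reporter; potency for activation of Gal4-LXR reporter so compounds are agonists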
T2 sequence (P55055 whole entry): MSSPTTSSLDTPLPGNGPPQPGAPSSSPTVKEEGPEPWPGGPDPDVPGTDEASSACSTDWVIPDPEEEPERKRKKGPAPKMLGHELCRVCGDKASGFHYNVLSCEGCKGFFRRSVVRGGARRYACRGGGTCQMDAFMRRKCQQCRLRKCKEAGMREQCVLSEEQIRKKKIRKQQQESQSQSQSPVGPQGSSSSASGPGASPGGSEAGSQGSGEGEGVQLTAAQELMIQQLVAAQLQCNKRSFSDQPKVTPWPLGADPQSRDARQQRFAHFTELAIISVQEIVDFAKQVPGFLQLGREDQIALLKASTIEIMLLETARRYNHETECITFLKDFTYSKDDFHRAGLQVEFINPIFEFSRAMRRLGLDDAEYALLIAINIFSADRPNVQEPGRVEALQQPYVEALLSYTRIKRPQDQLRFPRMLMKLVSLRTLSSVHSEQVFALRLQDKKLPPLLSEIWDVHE

H9c2 = experiment: cells; format: functional, cell-based; settings: Rattus norvegicus, H9c2, Myocardium
[9] = target: T3, Long-chain-fatty-acid--AMP ligase FadD28 (Mycobacterium tuberculosis, UniProt P9WQ59); experiment: Fluorescence polarization aasay to screen for inhibitors that compete for the binding of FadD28 to a bisubstrate Measured in Biochemical System Using Plate Reader - 2147-01_Inhibitor_Dose_CherryPick_Activity.; format: functional, Mycobacterium tuberculosis H37Rv
T3 sequence (P9WQ59 whole entry): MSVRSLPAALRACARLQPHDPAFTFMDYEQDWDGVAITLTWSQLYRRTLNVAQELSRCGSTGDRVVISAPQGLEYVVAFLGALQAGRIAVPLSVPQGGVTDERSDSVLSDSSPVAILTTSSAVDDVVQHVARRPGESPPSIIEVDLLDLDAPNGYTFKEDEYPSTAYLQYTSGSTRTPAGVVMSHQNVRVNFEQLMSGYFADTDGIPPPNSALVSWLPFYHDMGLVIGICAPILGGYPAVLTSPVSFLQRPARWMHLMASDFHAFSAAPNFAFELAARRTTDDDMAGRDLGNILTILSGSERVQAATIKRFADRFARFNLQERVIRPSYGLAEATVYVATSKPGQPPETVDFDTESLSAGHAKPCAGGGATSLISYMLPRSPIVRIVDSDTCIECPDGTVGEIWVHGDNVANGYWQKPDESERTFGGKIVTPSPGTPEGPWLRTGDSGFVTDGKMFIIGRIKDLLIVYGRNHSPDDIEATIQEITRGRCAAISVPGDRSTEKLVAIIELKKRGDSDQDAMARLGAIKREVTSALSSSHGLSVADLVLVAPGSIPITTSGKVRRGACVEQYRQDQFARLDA

[10] = HGIII-sPLA2 enzyme inhibition potency – biochemical, QFRET, IC50, dose response (AID 743457);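 also: green fluorescence rise as the enzyme cleaves BODIPY PC-A2 in liposomes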
Galanin receptor type 3 = Galanin receptor type 3 (Homo sapiens, UniProt O60755); experiment: Fluorescence-based cell-based primary high throughput dose response assay to identify antagonists of the Galanin Receptor 3 (GalR3).; format: functional
cells = format: functional, cell-based; settings: HEK-CNG
[11] = Counterscreen for inhibitors of Trypanosoma brucei methionyl tRNA synthetase (MetRS): Luminescence-based cell-based high throughput dose response assay to identify compounds that are cytotoxic to Jurkat human T lymphocyte cells.; format: functional
[12] = target: T4, Methionyl-tRNA synthetase, putative (Trypanosoma brucei brucei, UniProt Q38C91); format: functional, Trypanosoma brucei brucei strain 927/4 GUTat10.1
T4 sequence (Q38C91 whole entry): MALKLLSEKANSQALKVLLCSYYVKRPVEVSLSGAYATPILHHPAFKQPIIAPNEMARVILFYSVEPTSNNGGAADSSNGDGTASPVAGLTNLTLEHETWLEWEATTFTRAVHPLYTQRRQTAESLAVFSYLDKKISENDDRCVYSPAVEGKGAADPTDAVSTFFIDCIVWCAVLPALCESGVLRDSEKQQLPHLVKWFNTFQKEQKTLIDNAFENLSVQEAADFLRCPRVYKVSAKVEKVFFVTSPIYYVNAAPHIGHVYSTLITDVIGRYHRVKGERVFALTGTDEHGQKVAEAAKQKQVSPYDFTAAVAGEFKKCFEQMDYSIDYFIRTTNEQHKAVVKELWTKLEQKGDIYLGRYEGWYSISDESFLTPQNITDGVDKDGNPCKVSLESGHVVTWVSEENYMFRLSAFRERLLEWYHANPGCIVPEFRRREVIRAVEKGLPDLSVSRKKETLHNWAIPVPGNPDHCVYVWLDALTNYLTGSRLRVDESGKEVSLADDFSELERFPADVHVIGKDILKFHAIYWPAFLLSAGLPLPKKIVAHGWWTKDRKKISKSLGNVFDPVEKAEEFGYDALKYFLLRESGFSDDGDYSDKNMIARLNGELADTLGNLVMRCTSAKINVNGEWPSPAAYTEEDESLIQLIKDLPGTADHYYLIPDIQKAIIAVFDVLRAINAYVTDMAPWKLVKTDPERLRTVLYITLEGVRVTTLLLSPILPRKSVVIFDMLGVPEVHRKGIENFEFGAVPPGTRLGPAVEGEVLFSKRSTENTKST

[13] = target: T4, Methionyl-tRNA synthetase, putative; format: functional, Trypanosoma brucei brucei strain 927/4 GUTat10.1; remark: listed apart in the source
[14] = OVCAR8 cell viability loss – plate reader, dry powder samples, PAX8 project, dose response (AID 743197); format: functional, cell-based; settings: OVCAR-8
Paired box protein Pax-8 = Paired box protein Pax-8 (Homo sapiens, UniProt Q06710); experiment: PAX8 transcriptional activity inhibition in RMG-I – RMG-I cells, luciferase, cherry-pick, dose response (AID 687027); format: functional, cell-based;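 also: luciferase reporter driven by Pax8 target thyroperoxidase promoter measured by SteadyGlo luminescence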
[15] = OVCAR-3 cell viability loss – plate reader, dry powder samples, PAX8 inhibitor project, dose response (AID 743044); format: functional, cell-based
[16] = inhibition of ADAM10 peptide cleavage – biochemical, FRET peptide substrate, recombinant human ADAM10, selectivity assay for ADAM17 exosite inhibitor project, dose response (AID 743259);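 also: ADAM10 enzyme cleaving a FRET peptide substrate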
[17] = target: Disintegrin and metalloproteinase domain-containing protein 17 (Homo sapiens, UniProt P78536); experiment: exosite inhibitors of ADAM17, dose response, biochemical (AID 743260)
Disintegrin and metalloproteinase domain-containing protein 17, sequence (P78536 whole entry, the tested form may be a part): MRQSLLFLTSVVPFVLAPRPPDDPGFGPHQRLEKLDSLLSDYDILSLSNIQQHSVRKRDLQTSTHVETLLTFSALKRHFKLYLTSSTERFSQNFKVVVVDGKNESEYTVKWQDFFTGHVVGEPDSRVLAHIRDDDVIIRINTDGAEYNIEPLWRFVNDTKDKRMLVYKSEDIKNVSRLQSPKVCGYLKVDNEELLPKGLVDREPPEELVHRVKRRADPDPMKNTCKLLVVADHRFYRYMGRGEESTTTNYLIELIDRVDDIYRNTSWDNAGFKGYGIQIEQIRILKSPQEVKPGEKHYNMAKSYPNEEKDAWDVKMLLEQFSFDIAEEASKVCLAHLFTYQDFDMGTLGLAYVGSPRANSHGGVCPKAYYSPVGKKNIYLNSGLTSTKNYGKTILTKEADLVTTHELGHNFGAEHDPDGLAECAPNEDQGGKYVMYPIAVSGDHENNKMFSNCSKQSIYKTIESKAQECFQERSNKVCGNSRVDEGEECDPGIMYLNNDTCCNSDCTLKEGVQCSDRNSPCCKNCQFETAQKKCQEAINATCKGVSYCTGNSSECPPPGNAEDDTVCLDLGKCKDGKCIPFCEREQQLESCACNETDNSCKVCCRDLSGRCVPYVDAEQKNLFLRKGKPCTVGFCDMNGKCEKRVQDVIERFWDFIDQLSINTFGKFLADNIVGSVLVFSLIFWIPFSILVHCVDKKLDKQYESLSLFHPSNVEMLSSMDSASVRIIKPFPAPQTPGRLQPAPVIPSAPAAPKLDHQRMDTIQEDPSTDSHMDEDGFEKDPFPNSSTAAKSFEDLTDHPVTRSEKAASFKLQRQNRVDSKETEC

T1 sequence (P65502 whole entry): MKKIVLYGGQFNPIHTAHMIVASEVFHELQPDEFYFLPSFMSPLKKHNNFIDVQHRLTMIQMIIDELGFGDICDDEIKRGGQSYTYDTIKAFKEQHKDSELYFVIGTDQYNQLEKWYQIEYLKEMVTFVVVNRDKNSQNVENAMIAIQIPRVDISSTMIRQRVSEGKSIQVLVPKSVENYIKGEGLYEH
Galanin receptor type 3, sequence (O60755 whole entry): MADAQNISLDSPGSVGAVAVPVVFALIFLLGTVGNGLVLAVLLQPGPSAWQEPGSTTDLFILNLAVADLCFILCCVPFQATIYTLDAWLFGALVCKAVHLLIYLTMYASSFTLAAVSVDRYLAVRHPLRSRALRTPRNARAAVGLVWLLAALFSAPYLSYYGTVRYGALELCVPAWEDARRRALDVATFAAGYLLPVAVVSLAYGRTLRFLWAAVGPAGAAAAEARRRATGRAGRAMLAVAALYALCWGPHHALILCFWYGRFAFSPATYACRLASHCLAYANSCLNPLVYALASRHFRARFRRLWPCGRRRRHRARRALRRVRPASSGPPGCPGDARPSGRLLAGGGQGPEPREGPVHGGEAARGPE
Paired box protein Pax-8, sequence (Q06710 whole entry): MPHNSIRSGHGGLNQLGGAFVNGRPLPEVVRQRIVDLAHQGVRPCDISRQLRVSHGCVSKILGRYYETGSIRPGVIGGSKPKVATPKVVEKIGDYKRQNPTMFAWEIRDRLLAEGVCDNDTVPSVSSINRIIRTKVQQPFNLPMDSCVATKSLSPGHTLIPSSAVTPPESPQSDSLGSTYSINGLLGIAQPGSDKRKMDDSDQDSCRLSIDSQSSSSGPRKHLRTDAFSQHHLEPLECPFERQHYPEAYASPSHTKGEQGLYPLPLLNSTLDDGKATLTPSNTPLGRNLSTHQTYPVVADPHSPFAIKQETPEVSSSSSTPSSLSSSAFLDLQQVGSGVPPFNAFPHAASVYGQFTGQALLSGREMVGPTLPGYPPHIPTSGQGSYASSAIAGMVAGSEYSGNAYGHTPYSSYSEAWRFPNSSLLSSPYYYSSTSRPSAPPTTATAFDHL

## CCCCOc1ccc(CNc2c(N(C)O)c(=O)c2=O)cc1
[1]
  IC50: 19 µM (inactive)

## O=C(NC(=S)Nc1cc(-c2nc3ccccc3[nH]2)ccc1Cl)c1ccc2c(c1)OCO2
[2]
  IC50: 58.9 µM (active)
[3]
  EC50: 2.23 µM (active)
[4]
  EC50: 1.53 µM (active)
[5]
  IC50: 21.1 µM (active)

## C[C@H](CO)N1C[C@H](C)[C@H](CN(C)Cc2ccc(Oc3ccccc3)cc2)Oc2ccc(NC(=O)Nc3ccc(C(F)(F)F)cc3)cc2C1=O
[6]
  AC50: 9.62 µM (active)
[7]
  AC50: 7.87 µM (active)

## Cc1ccc2nc(-c3ccccn3)oc2c1
[8]
  EC50: > 67.6 µM (inactive)

## CCOC(=O)N1CCN(S(=O)(=O)c2ccc(C(=O)NNc3nc4c(C)cccc4s3)cc2)CC1
H9c2
  IC50: 14.2 µM (active)
[9]
  AC50: 22.1 µM (active)
[10]
  IC50: 25.9 µM (inactive)

## CNC(=O)NC(=O)CSc1nnc(-c2ccc(F)cc2)n1CC1CCCO1 (stereo not given)
Galanin receptor type 3
  IC50: > 29.9 µM (inactive)
cells
  EC50: > 29.9 µM (inactive)

## COc1ccc(CNC(=O)CSc2n[nH]c3c4ccccc4nc-3n2)cc1
[11]
  IC50: 83.3 µM (inactive)
[12]
  IC50: 4.39 µM (active)
[13]
  IC50: 1.54 µM (active)

## C[C@@H]1CN([C@@H](C)CO)C(=O)c2cccc(NC(=O)Nc3cccc4ccccc34)c2O[C@@H]1CN(C)Cc1ccc(C(=O)Nc2ccccc2N)cc1
[6]
  AC50: < 0.3 µM (active)
[7]
  AC50: 12.1 µM (active)

## Cc1ccc(S(=O)(=O)Nc2ccc3c(c2)C(=O)N([C@H](C)CO)C[C@H](C)[C@@H](CN(C)S(=O)(=O)c2cccs2)OCCCC[C@H](C)O3)cc1
[14]
  AC50: > 70 µM (inactive)
Paired box protein Pax-8
  AC50: 4.23 µM (active)
[15]
  AC50: 20.5 µM (active)

## CC(C)(C)OC(=O)N1CCCC(C(=O)Nc2cccc(C(=O)NCCCCc3ccccc3)c2)C1 (stereo not given)
[16]
  IC50: > 69.5 µM (inactive)
[17]
  IC50: > 69.5 µM (inactive)

## CC1(OC(=O)C2CCCC2)C(=O)C=C2C=C(c3ccc(C#N)cc3)OC=C2C1=O (stereo not given)
[2]
  IC50: 15.7 µM (active)
[5]
  IC50: 6.57 µM (active)
